According to US10316039B2, “P2X3 and/or P2X2/3 compounds and methods” (Asana Biosciences, LLC, priority 2013, dated 2019):

These compounds were tested against T1, P2X2/3 (Homo sapiens, UniProt P56373+Q9UBL9) (assay: P2X2/3 FLIPR intracellular calcium assay). Conditions: agonist at EC75, species (human or rat) not given.
T1 sequence (Q9UBL9 1-471): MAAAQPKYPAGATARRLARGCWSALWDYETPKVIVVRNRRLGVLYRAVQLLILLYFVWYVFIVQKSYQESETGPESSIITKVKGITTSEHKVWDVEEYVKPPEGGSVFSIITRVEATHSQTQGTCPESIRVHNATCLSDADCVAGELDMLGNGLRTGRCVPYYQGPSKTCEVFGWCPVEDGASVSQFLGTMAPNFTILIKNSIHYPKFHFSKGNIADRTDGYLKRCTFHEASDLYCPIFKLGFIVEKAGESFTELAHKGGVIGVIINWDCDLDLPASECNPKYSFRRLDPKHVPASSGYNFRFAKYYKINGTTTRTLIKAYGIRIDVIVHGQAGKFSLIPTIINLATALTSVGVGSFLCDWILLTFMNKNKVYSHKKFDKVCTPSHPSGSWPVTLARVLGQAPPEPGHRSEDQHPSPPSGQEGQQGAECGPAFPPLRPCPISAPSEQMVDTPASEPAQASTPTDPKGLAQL
T1 sequence (P56373 1-397): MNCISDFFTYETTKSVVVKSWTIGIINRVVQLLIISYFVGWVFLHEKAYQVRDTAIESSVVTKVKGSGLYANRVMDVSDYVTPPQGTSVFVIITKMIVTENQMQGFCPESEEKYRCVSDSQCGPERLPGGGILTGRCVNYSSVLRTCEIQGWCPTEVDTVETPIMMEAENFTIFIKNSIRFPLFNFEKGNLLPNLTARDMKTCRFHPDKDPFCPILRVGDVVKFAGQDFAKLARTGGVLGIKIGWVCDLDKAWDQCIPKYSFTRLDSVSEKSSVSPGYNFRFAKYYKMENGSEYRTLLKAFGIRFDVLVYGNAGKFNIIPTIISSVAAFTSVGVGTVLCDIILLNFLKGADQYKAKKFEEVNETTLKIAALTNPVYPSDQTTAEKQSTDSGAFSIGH
Format: cell-based
Method in brief: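 Stable human P2X2/3 TRex293 cells (doxycycline-induced) loaded with Calcium 4 dye; compounds, 11-point half-log series from 2 mM top stock, preincubated 15 min at RT in HBSS/HEPES pH 7.4 with 1.8 mM CaCl2. Agonist added at EC75; fluorescence change versus no-compound wells gave IC50.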

Row | SMILES | IC50
1 | C[C@H](NC(=O)c1cc(-n2nncc2C(F)F)c2ncc(-c3ccc(Cl)s3)n2c1)c1nnc[nH]1 [Example 38] | 1 to 100 nM
2 | CC[C@H](NC(=O)c1cc(-n2nncc2C(F)F)c2ncc(-c3ccc(C)s3)n2c1)c1nnc[nH]1 [Example 52] | 1 to 100 nM
3 | CCc1cnnn1-c1cc(C(=O)NCc2ccc(C)nc2)cn2c(-c3ccc(C)s3)cnc12 [Example 22] | 1 to 100 nM
